“Also recorded” adds a separate entry of the source.

Consider 21 compounds from US11084781B2, “Diarylureas as CB1 allosteric modulators” (Research Triangle Institute, priority 2017, dated 2021).

Data set [1] is described as follows: Metabolic stability in rat liver microsomes. It is filed as in vitro ADME. As to the method:
Metabolic stability assessment was performed by Paraza Pharma Inc. (Montreal, Canada).
Compounds were incubated with rat liver microsomes at 37° C. for a total of 45 minutes. The reaction was performed at pH 7.4 in 100 mM potassium phosphate buffer containing 0.5 mg/mL of rat liver microsomal protein. Phase I metabolism was assessed by adding NADPH to a final concentration of 1 mM and collecting samples at time points 0, 5, 15, 30 and 45 minutes. All collected samples were quenched 1:1 with ice-cold stop solution (1 μM labetalol and 1 μM glyburide in acetonitrile), and centrifuged to remove precipitated protein. Resulting supernatants were further diluted 1:4 with acetonitrile:water (1:1). Samples were analyzed by LC/MS/MS and calculations for half-life, and in-vitro clearance were accomplished using Microsoft Excel (2007).

For data set [2], the target named is T1, human CB1 receptor (Homo sapiens, UniProt P21554).
T1 construct: host or cells: CHO-RD-HGA16 cells (CHO cells overexpressing promiscuous Galpha16)
Description: CB1 calcium mobilization assay (antagonist mode, against EC80 of CP55,940). It is filed as cell-based. To be noted: Table 1; against EC80 (100 nM) of CP55,940; mean ± S.E.M.; read-out: CB1 calcium assay IC50.
Description: CHO-RD-HGA16 cells (Molecular Devices, CA) stably expressing the human CB1 receptor were plated into 96-well black-walled assay plates at 25,000 cells/well in 100 μL of Ham's F12 (supplemented with 10% fetal bovine serum, 100 units of penicillin/streptomycin, and 100 μg/mL Normocin) and incubated overnight at 37° C., 5% CO2. Calcium 5 dye (Molecular Devices, CA) was reconstituted according to the manufacturer's instructions. The reconstituted dye was diluted 1:40 in prewarmed (37° C.) assay buffer (1×HBSS, 20 mM HEPES, 2.5 mM probenecid, pH 7.4 at 37° C.). Growth medium was removed, and the cells were gently washed with 100 μL of prewarmed (37° C.) assay buffer. […] After the pretreatment incubation period, the plate was read with a FLIPR Tetra (Molecular Devices, CA). […] Relative fluorescence units (RFU) were plotted against the log of compound concentrations. Data were fit to a three-parameter logistic curve to generate IC50 values (GraphPad Prism 6.0, CA). […] Test compound RFUs were compared to the CP55,940 Emax RFUs to generate % Emax values.
In these assays, CHO cells that overexpress the promiscuous Gα16 protein were engineered to stably express the CB1 or CB2 receptor. Compounds were evaluated for their ability to decrease the mobilization of intracellular calcium levels stimulated by CP55,940.

Data set [3] deals with T1, human CB1 receptor. The data set can be described thus: CB1 calcium mobilization assay, agonist screen. It is filed as cell-based. The note with it: Table 1; 10,000 nM final concentration; mean ± SD.
Description: CHO-RD-HGA16 cells (Molecular Devices, CA) stably expressing the human CB1 receptor were plated into 96-well black-walled assay plates at 25,000 cells/well in 100 μL of Ham's F12 (supplemented with 10% fetal bovine serum, 100 units of penicillin/streptomycin, and 100 μg/mL Normocin) and incubated overnight at 37° C., 5% CO2. Calcium 5 dye (Molecular Devices, CA) was reconstituted according to the manufacturer's instructions. The reconstituted dye was diluted 1:40 in prewarmed (37° C.) assay buffer (1×HBSS, 20 mM HEPES, 2.5 mM probenecid, pH 7.4 at 37° C.). Growth medium was removed, and the cells were gently washed with 100 μL of prewarmed (37° C.) assay buffer. The cells were incubated for 45 min at 37° C., 5% CO2 in 200 μL of the diluted Calcium 5 dye solution. […] Serial dilutions of the test compounds were prepared at 10× the desired final concentration in 2.25% BSA/4.5% DMSO/4.5% EtOH/assay buffer. After the dye loading incubation period, the cells were pretreated with 25 μL of the test compound serial dilutions and incubated for 15 min at 37° C. After the pretreatment incubation period, the plate was read with a FLIPR Tetra (Molecular Devices, CA). Calcium-mediated changes in fluorescence were monitored every 1 s over a 90 s time period, with the Tetra adding 25 μL of the CP55,940 EC80 concentration at the 10s time point (excitation/emission: 485/525 nm). Relative fluorescence units (RFU) were plotted against the log of compound concentrations. Data were fit to a three-parameter logistic curve to generate IC50 values (GraphPad Prism 6.0, CA). […] For agonist screens, the above procedure was followed except that cells were pretreated with 2.25% BSA/4.5% DMSO/4.5% EtOH/assay buffer and the Tetra added single concentration dilutions of the test compounds prepared at 10× the desired final concentration in 0.25% BSA/0.5% DMSO/0.5% EtOH/assay buffer. Test compound RFUs were compared to the CP55,940 Emax RFUs to generate % Emax values.
For another data set, the target named is T2, CB1 receptor (Mus musculus, UniProt P47746).
T2 construct: from tissue; host or cells: cerebellar membranes of adult male CD-1 mice
The data set can be described thus: [35S]GTP-γ-S binding assay in mouse cerebellar membranes, CP55,940-stimulated. It is filed as biochemical. The note with it: for IC50: CP55,940 (100 nM) stimulation, mean (95% confidence interval).

Data set [4] has as its system cocaine-seeking behavior in rats. Description: Reinstatement of extinguished cocaine-seeking behavior. It is filed as in vivo, rat. As to the method: Animals: Adult male Sprague-Dawley rats (Harlan, Indianapolis, Ind.) weighing 280-300 g were used in the study. Animals were housed individually on a 12/12 hr light/dark cycle (behavioral experiments were conducted during the light period) with free access to water and food except during experimental sessions. Animals were maintained and experiments conducted in accordance with the Institutional Animal Care and Use Committee, University at Buffalo, and with the 2011 Guide for the Care and Use of Laboratory Animals (Institute of Laboratory Animal Resources on Life Sciences, National Research Council, National Academy of Sciences, Washington D.C.).
Drug self-administration, extinction and reinstatement: The reinstatement procedure was described in detail elsewhere^37, 38. Briefly, rats were surgically implanted with a chronic indwelling jugular catheter. After one-week recovery, rats were trained to press the active lever (left lever) for infusion of cocaine (0.75 mg/kg/inf) under a fixed ratio [FR] schedule (starting FR=1, which was increased to FR 5 within 5 training sessions) schedule during daily 2-hr sessions for 14 days. Reinforcer deliveries were accompanied by the presentation of a stimulus light over the active lever followed by a 30-s time-out period during which lever presses had no programmed consequence. Following acquisition of cocaine self-administration, extinction of drug-seeking behavior took place during 2-hr daily sessions in which lever pressing produced no consequence. All other conditions remained unchanged. After 7 days of extinction, all rats reached the extinction criteria (total responses less than 20% of the training sessions).
Drug-induced reinstatement test was conducted on the day following the last extinction session. Rats were pretreated with vehicle, compounds 2 (15, 30 mg/kg) or 34 (10 mg/kg) 10 min prior to a priming injection of cocaine (10 mg/kg, i.p.) administered immediately before the start of the reinstatement session.
Data analyses: Data are expressed as mean±S.E.M. Differences in active lever responding between the last extinction session and reinstatement session were determined with paired t tests (within subjects comparison). The effects of compounds 2 on reinstatement were analyzed by a one-way analysis of variance (ANOVA) followed by post hoc Bonferroni's test (between subjects comparison). The effects of compounds 34 on reinstatement was analyzed by Student's t test. P<0.05 was considered statistically significant.

T1 sequence (P21554 whole entry): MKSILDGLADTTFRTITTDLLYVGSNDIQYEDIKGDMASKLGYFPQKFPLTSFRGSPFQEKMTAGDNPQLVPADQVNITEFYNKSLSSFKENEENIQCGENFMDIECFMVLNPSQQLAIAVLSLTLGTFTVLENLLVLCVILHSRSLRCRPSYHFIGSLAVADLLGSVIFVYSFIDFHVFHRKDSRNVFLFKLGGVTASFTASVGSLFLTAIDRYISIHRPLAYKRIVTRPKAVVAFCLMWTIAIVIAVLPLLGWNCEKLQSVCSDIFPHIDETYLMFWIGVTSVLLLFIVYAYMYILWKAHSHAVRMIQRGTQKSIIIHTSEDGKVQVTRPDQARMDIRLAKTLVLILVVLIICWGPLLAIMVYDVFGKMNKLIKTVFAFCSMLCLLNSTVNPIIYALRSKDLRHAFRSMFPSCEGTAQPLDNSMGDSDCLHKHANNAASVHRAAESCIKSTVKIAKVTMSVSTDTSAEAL
T2 sequence (P47746 whole entry): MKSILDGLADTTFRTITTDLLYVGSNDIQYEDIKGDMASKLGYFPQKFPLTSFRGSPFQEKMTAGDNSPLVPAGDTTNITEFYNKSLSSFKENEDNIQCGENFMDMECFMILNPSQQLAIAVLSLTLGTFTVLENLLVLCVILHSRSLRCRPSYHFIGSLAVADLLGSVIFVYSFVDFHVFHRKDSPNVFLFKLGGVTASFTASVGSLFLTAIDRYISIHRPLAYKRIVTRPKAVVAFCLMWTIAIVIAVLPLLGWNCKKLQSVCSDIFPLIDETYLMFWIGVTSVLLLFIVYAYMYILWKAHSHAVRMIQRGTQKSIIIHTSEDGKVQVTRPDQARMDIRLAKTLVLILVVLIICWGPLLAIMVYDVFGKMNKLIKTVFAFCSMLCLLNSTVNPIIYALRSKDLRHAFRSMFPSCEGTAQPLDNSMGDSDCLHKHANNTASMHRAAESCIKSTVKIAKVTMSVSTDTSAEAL

In turn, `O=C(Nc1ccc(Cl)cc1)Nc1cccc(-c2ccncc2)c1` [Compound 20, 3-(4-Chlorophenyl)-1-[3-(pyridin-4-yl)phenyl]urea] registered a Clearance in data set [1] (0.5 mg/mL, NADPH, 37° C., mean ± S.E.M.) of 33.1 ± 1.0 µL/min/mg. Moreover, in data set [1] (half-life vs B), the “Increase in metabolic stability relative to B” value is on record as ~3 fold. Besides, the IC50 (commonly the concentration at which inhibition is half-maximal) at human CB1 receptor [2] was 0.178 ± 0.038 µM; at CB1 receptor it was 0.407 µM. Besides, the “CB1 calcium assay Agonist screen (% CP55, 940 Emax)” value at human CB1 receptor [3] is reported as 14.5 ± 2.5 % CP55, 940 Emax.
Regarding `O=C(Nc1ccc(Cl)cc1)Nc1cccc(-c2ccccc2)c1` [Compound 22, 3-(4-Chlorophenyl)-1-(3-phenylphenyl)urea], the values for the IC50 at human CB1 receptor [2] and on CB1 receptor were 0.032 ± 0.007 µM and 0.437 µM, respectively. For the same compound, the “CB1 calcium assay Agonist screen (% CP55, 940 Emax)” value at human CB1 receptor [3] is 5.1 ± 0.8 % CP55, 940 Emax.
As to `COc1cccc(-c2cccc(NC(=O)Nc3ccc(Cl)cc3)c2)c1` [Compound 23, 3-(4-Chlorophenyl)-1-[3-(3-methoxyphenyl)phenyl]urea], the IC50 on human CB1 receptor [2] was 0.081 ± 0.01 µM; at CB1 receptor it was 0.827 µM. For the same compound, at human CB1 receptor [3], the “CB1 calcium assay Agonist screen (% CP55, 940 Emax)” value was 12.5 ± 1.9 % CP55, 940 Emax.
With `O=C(Nc1ccc(Cl)cc1)Nc1cccc(-c2ccc3c(c2)OCO3)c1` [Compound 26, 1-[3-(2H-1,3-Benzodioxol-5-yl)phenyl]-3-(4-chlorophenyl)urea], the IC50 at human CB1 receptor [2] came to 0.07 ± 0.014 µM; on CB1 receptor, 0.619 µM. For the same compound, on human CB1 receptor [3], the “CB1 calcium assay Agonist screen (% CP55, 940 Emax)” value is on record as 9.8 ± 3.5 % CP55, 940 Emax.
For the compound `O=C(Nc1ccc(Cl)cc1)Nc1cccc(-c2cc(Cl)cc(Cl)c2)c1` [Compound 31, 3-(4-Chlorophenyl)-1-[3-(3,5-dichlorophenyl)phenyl]urea], the values for the IC50 at human CB1 receptor [2] and at CB1 receptor were 0.022 ± 0.002 µM and 0.299 µM, respectively. The “CB1 calcium assay Agonist screen (% CP55, 940 Emax)” value at human CB1 receptor [3] is 15.5 ± 2.4 % CP55, 940 Emax.
`O=C(Nc1ccc(Cl)cc1)Nc1cccc(-c2ccc(Cl)c(Cl)c2)c1` [Compound 32, 3-(4-Chlorophenyl)-1-[3-(3,4-dichlorophenyl)phenyl]urea]: the IC50 at human CB1 receptor [2] was 0.03 ± 0.004 µM; at CB1 receptor it was 0.464 µM. Further, on human CB1 receptor [3], the “CB1 calcium assay Agonist screen (% CP55, 940 Emax)” value is 10.4 ± 2.1 % CP55, 940 Emax.
On to `O=C(Nc1ccc(Cl)cc1)Nc1cccc(-c2cccc(-c3ccccc3)c2)c1` [Compound 38, 3-(4-Chlorophenyl)-1-[3-(3-phenylphenyl)phenyl]urea], for which the IC50 on human CB1 receptor [2] is 0.195 ± 0.04 µM; on CB1 receptor it was 0.559 µM. Besides, the “CB1 calcium assay Agonist screen (% CP55, 940 Emax)” value on human CB1 receptor [3] is 0.5 ± 0.2 % CP55, 940 Emax.
`O=C(Nc1ccc(Cl)cc1)Nc1cccc(-c2ccc3occc3c2)c1` [Compound 41, 1-[3-(1-Benzofuran-5-yl)phenyl]-3-(4-chlorophenyl)urea]: the IC50 stood at 0.134 ± 0.013 µM on human CB1 receptor [2] and 0.265 µM at CB1 receptor. Besides, on human CB1 receptor [3], the “CB1 calcium assay Agonist screen (% CP55, 940 Emax)” value is on record as 0.2 ± 1.0 % CP55, 940 Emax.
As for `O=C(Nc1ccc(Cl)cc1)Nc1cccc(-c2cnc3ccccc3c2)c1` [Compound 44, 3-(4-Chlorophenyl)-1-[3-(quinolin-3-yl)phenyl]urea], the IC50 came out at 0.516 ± 0.07 µM at human CB1 receptor [2] and 0.651 µM on CB1 receptor. For the same compound, the “CB1 calcium assay Agonist screen (% CP55, 940 Emax)” value at human CB1 receptor [3] is 2.6 ± 1.2 % CP55, 940 Emax.
With `O=C(Nc1ccc(Cl)cc1)Nc1cccc(-c2ccsc2)c1` [Compound 47, 3-(4-Chlorophenyl)-1-[3-(thiophen-3-yl)phenyl]urea], the IC50 at human CB1 receptor [2] stood at 0.036 ± 0.001 µM; on CB1 receptor it was 0.164 µM. Besides, the “CB1 calcium assay Agonist screen (% CP55, 940 Emax)” value at human CB1 receptor [3] is 28.9 ± 0.6 % CP55, 940 Emax.
On to `O=C(Nc1ccc(Cl)cc1)Nc1cccc(-c2cccs2)c1` [Compound 48, 3-(4-Chlorophenyl)-1-[3-(thiophen-2-yl)phenyl]urea], for which the IC50 came to 0.067 ± 0.006 µM at human CB1 receptor [2] and 0.573 µM on CB1 receptor. At human CB1 receptor [3], the “CB1 calcium assay Agonist screen (% CP55, 940 Emax)” value was 12.8 ± 1.8 % CP55, 940 Emax.
As to `Cc1cc(-c2cccc(NC(=O)Nc3ccc(Cl)cc3)c2)cs1` [Compound 49, 3-(4-Chlorophenyl)-1-[3-(5-methylthiophen-3-yl)phenyl]urea], the IC50 worked out at 0.04 ± 0.004 µM at human CB1 receptor [2] and 0.776 µM on CB1 receptor. The “CB1 calcium assay Agonist screen (% CP55, 940 Emax)” value on human CB1 receptor [3] is 3.7 ± 1.7 % CP55, 940 Emax.
As to `Cc1ccc(-c2cccc(NC(=O)Nc3ccc(Cl)cc3)c2)s1` [Compound 50, 3-(4-Chlorophenyl)-1-[3-(5-methylthiophen-2-yl)phenyl]urea], the half-maximal inhibitory concentration (IC50) on human CB1 receptor [2] is 0.042 ± 0.006 µM; on CB1 receptor, 0.372 µM. Further, the “CB1 calcium assay Agonist screen (% CP55, 940 Emax)” value at human CB1 receptor [3] is recorded as 4.6 ± 1.4 % CP55, 940 Emax.
For the compound `O=C(Nc1ccc(Cl)cc1)Nc1cccc(-c2cncs2)c1` [Compound 51, 3-(4-Chlorophenyl)-1-[3-(1,3-thiazol-5-yl)phenyl]urea], the IC50 on human CB1 receptor [2] was determined as 0.094 ± 0.009 µM; on CB1 receptor, 0.331 µM. The “CB1 calcium assay Agonist screen (% CP55, 940 Emax)” value at human CB1 receptor [3] is 8.1 ± 3.1 % CP55, 940 Emax.
For the compound `O=C(Nc1ccc(Cl)cc1)Nc1cccc(-c2cscn2)c1` [Compound 52, 3-(4-Chlorophenyl)-1-[3-(1,3-thiazol-4-yl)phenyl]urea], the IC50 was determined as 0.084 ± 0.006 µM on human CB1 receptor [2] and 0.25 µM at CB1 receptor. Besides, the “CB1 calcium assay Agonist screen (% CP55, 940 Emax)” value on human CB1 receptor [3] is 8.6 ± 4.4 % CP55, 940 Emax.
In the case of `O=C(Nc1ccc(Cl)cc1)Nc1cccc(-c2nccs2)c1` [Compound 53, 3-(4-Chlorophenyl)-1-[3-(1,3-thiazol-2-yl)phenyl]urea], the IC50 at human CB1 receptor [2] is 0.154 ± 0.014 µM; on CB1 receptor, 1.26 µM. For the same compound, the “CB1 calcium assay Agonist screen (% CP55, 940 Emax)” value on human CB1 receptor [3] is on record as 20.1 ± 1.1 % CP55, 940 Emax.
For the compound `O=C(Nc1ccc(Cl)cc1)Nc1cccc(-c2ccc[nH]2)c1` [Compound 65, 3-(4-Chlorophenyl)-1-[3-(1H-pyrrol-2-yl)phenyl]urea], the IC50 was 0.169 ± 0.034 µM on human CB1 receptor [2] and 0.04 µM at CB1 receptor. For the same compound, the “CB1 calcium assay Agonist screen (% CP55, 940 Emax)” value at human CB1 receptor [3] was 13.7 ± 0.1 % CP55, 940 Emax.
For `Cn1cccc1-c1cccc(NC(=O)Nc2ccc(Cl)cc2)c1` [Compound 68, 3-(4-Chlorophenyl)-1-[3-(1-methyl-1H-pyrrol-2-yl)phenyl]urea], the IC50 on human CB1 receptor [2] came out at 0.165 ± 0.014 µM; at CB1 receptor it was 0.665 µM. Moreover, the “CB1 calcium assay Agonist screen (% CP55, 940 Emax)” value at human CB1 receptor [3] is 3.4 ± 2.9 % CP55, 940 Emax.
In the case of `O=C(Nc1ccc(Cl)cc1)Nc1cccc(-c2ncc[nH]2)c1` [Compound 72, 3-(4-Chlorophenyl)-1-[3-(1H-imidazol-2-yl)phenyl]urea], the figures for the IC50 on human CB1 receptor [2] and at CB1 receptor were 0.529 ± 0.098 µM and 0.343 µM, respectively. In addition, the “CB1 calcium assay Agonist screen (% CP55, 940 Emax)” value at human CB1 receptor [3] is 4.3 ± 0.5 % CP55, 940 Emax.
`O=C(Nc1ccc(Cl)cc1)Nc1cccc(N2CC3(COC3)C2)c1` [Compound 84, 3-(4-Chlorophenyl)-1-(3-{2-oxa-6-azaspiro[3.3]heptan-6-yl}phenyl)urea]: the figures for the IC50 at human CB1 receptor [2] and on CB1 receptor were 0.792 ± 0.043 µM and > 10 µM, respectively. In addition, at human CB1 receptor [3], the “CB1 calcium assay Agonist screen (% CP55, 940 Emax)” value is 28.8 ± 0.2 % CP55, 940 Emax.
For `O=C(Nc1ccc(Cl)cc1)Nc1cccc(-c2cccc(N3CCCC3)n2)c1` [Compound B, 1-(4-Chlorophenyl)-3-{3-[6-(pyrrolidin-1-yl)pyridin-2-yl]phenyl}urea, reference compound], the “Attenuation of cocaine-induced reinstatement of cocaine-seeking behavior” value is given as “significantly reduced cocaine-induced reinstatement behavior” in data set [4] (dose 30 mg/kg, cocaine prime 10 mg/kg i.p.) and “dose-dependently attenuated; also recorded: attenuated the resumption of extinguished cocaine-seeking behavior” in data set [4] (pretreatment 10 min prior to cocaine prime 10 mg/kg i.p.). Further, the “CB1 calcium assay Agonist screen (% CP55, 940 Emax)” value on human CB1 receptor [3] is 28.2 ± 4.8 % CP55, 940 Emax. The same compound returned an IC50 at CB1 receptor of 0.102 µM. Moreover, on CB1 receptor (CP55,940 as agonist probe), the “Effect on [35S]GTP-γ-S binding level” value was “dose-dependently decreased”.
